The structures appear in SMILES notation.

By melting point is commonly meant the temperature of the solid-liquid transition. In turn, `Cc1c(CCCCCCCCCCCC(=O)O)cccc1C(=O)c1ccc(Cl)cc1` had a melting point of 79 °C.
The figure for `O=C(O)CCc1cc2nc(Cl)ccc2n1S(=O)(=O)c1cccc(OC(F)(F)F)c1` is 146 °C; for `CCCCc1nc(Cl)c(COC(C)=O)n1Cc1ccc(-c2cccc(C(=O)O)c2)cc1` it is 172 to 173 °C; for `COc1ccc2c(c1)C(c1ccc(OCCN3CCCCC3)cc1)c1c-2ccc2cc(OC)ccc12` (configuration not stated) it is 162 to 164 °C.
Compound `S=c1[nH]nc(-c2ccc3ccccc3c2)s1` gave a melting point of 254 to 256 °C.
As for `Clc1ccc(C(=NN=Cc2cccnc2)SSC(=NN=Cc2cccnc2)c2ccc(Cl)cc2)cc1`, the melting point was in the range of 143 to 145 °C.
Then `CC(=O)OCC1Cn2cc(C(=O)NCc3ccc(Cl)cc3)c(=O)c3cc(CN4CCOCC4)cc(c32)O1` (configuration not stated), with 215 to 218 °C.
As to `CC(C)n1nc(-c2c(-c3ccccc3)nn3ccc(OCc4ccncc4)cc23)ccc1=O`, the melting point lay within 218 to 220 °C.
On to `COc1cccc([C@H]2O[C@H](CC(=O)Nc3ncc(CCC(=O)O)s3)C(=O)N(CC(C)(C)CO)c3ccc(Cl)cc32)c1OC`, for which the melting point was 203 to 205 °C.
The figure for `CCC(=O)Oc1ccc2nc(NC(=O)Nc3ccccc3)sc2c1` is 212 to 215 °C; for `CC1Oc2cc(N)c([N+](=O)[O-])cc2O1` (configuration not stated) it is 139 °C.
As to `CC(C)n1nc(-c2nc(C#Cc3cncn3C)c(N)nc2-c2ccccc2)ccc1=O`, the melting point was over 250 °C.
The figure for `CS/C(NC(=O)c1ccc(SC)cc1)=C(\C#N)C(=O)Nc1ccc(C)cc1` is 173 to 175 °C.
The figure for `CCc1cccc(C2(O)C3CC4CC(C3)CC2C4)c1` (configuration not stated) is 63 to 65 °C.
Compound `COC(=O)[C@H](C)N(C(=O)[C@H](CC(C)C)NC(=O)OCc1ccccc1)c1ccc(-c2ccccc2)cc1` yielded a melting point of 126 to 127 °C.
The figure for `NC(=O)c1cc(CN2C(=O)C3(COc4cc5c(cc43)OCO5)c3ccccc32)oc1C(F)(F)F` (configuration not stated) is 172 to 174 °C; for `O=[N+]([O-])c1nccn1CC(O)CN1CC1` (configuration not stated) it is 118 to 120 °C; for `C=C(C)C(=O)c1nc(S(=O)C(C)C)n(-c2ccc(CC)cc2)c1Cl` (configuration not stated) it is 83 to 84 °C.
The figure for `CCCN(C(=O)OCC(Cl)(Cl)Cl)C1CN(C(=O)Nc2ccc(C(F)(F)F)cc2)N=C1c1ccc(OC(F)F)c(C)c1` (configuration not stated) is 165 to 166 °C.
Regarding `Cc1nc(-n2ccc(C(F)(F)F)cc2=O)sc1C(=O)NCc1cccnc1`, the melting point was in the range of 172 to 173 °C.
For `Cc1cc(-c2ccc(C(F)(F)F)cc2)cc(-c2ccnc(-c3cccc(N)c3)n2)n1`, the melting point is 167 °C.
Then `CC(C)[C@H](NC(=O)OCc1ccccc1)C(=O)NCC(=O)OC(C)(C)C`, with 139 to 141 °C; and `O=C(N[C@@H]1CCCC[C@H]1O)c1cnc(OCC(F)(F)F)c(-c2ccc(F)cc2)n1`, with 133 to 134 °C.
With `CCOC(=O)Cc1cnc(-c2cc3cccc(N(C)S(=O)(=O)c4cccs4)c3[nH]2)s1`, the melting point was in the range of 126 to 127 °C.
The figure for `c1ccc(C2CCCC2OCC2CO2)cc1` (configuration not stated) is 31 °C; for `Nc1ccc(O)c2c1C(=O)c1c(N)ccc(O)c1C2=O` it is 290 °C.
Regarding `C=Cc1cnc2c(NC(=O)c3c(Cl)cccc3Cl)cccc2c1Cn1ccnc1`, the melting point lay in the range of 189 to 191 °C.
The figure for `Cc1nc(N2CCC(NCc3ccc(F)cc3)C2=O)sc1C(=O)NCc1ccc(F)cc1` (configuration not stated) is 123 to 124 °C; for `CNc1nc2c(OCc3ccccc3)cccc2n1C` it is 213 °C; for `CCN1CCC(C2CCN(C(=O)OCc3ccccc3)CC2)CC1` it is 93 to 96 °C.
The compound `Cc1ccnc(NC(c2ccc([N+](=O)[O-])cc2)c2ccc3cccnc3c2O)n1` (configuration not stated) displayed a melting point of 136 to 145 °C.
Compound `COc1ccccc1Cn1c(=O)c2c(N3CCNCC3)cc(Cl)cc2n(Cc2ccccc2)c1=O` showed a melting point of 122 to 125 °C.
`Cn1nnc(-c2ccc3c(ccn3-c3ccc(F)cc3)c2)n1` returned a melting point of 131 to 133 °C.
The figure for `O=C(O)c1cccc(Nc2nc(Oc3ccccc3)nc(Oc3cccc([N+](=O)[O-])c3)n2)c1` is 225 to 228 °C; for `CCOC(=O)C1=C(C)NC(C)=C2C(=O)Nc3ccccc3C21` (configuration not stated) it is 236 to 238 °C.
`CC(C)(C)NC(=O)C1CCC2C3CNC4=CC(=O)CCC4(C)C3CCC12C` (configuration not stated) returned a melting point of 186 to 189 °C.
The figure for `O=[N+]([O-])c1c(-c2c(C(F)(F)F)[nH]c(-c3ccc(Cl)cc3)c2[N+](=O)[O-])csc1Br` is 186 to 190 °C.
The figure for `Cc1nc(-c2ccc(OCC(C)(C)C)c([N+](=O)[O-])c2)sc1C(=O)O` is 242 to 245 °C.
Take `Cc1cc(N)c2nccc(Cl)c2c1`: the melting point was 115 to 116 °C.
Then `CC1(C)C=C(c2ccccn2)c2ccccc2O1`, with 80 to 82 °C; and `COC(c1sc2ccc(Cl)cc2c1Cl)C(C)NC(=O)c1cn(C)nc1C(F)F` (configuration not stated), with 128 to 132 °C.
The compound `C#CCOc1cc(N2C(=O)c3ccccc3C2=O)c(F)cc1C#N` had a melting point of 242 °C.
The compound `CN1CC(Cl)CC2c3cccc4[nH]cc(c34)CC21` (configuration not stated) yielded a melting point of 195 to 197 °C.
Consider `COC(=O)CCCC=C1SC(=S)N(N=c2sc3ccccc3s2)C1=O`, for which the melting point came out at 210 °C.
Then `CCCCCCn1c(=O)c(=O)[nH]c2c3ccccc3ccc21`, with 196 °C; and `COc1ccccc1-c1nc(CC(=O)O)cs1`, with 104 to 105 °C; and `NC(Cc1cccc(O)c1)c1ccccc1` (configuration not stated), with 179 to 181 °C.
In turn, `COc1cc(/C=C2/C(=O)OC(=O)C2=C(C)C)cc(OC)c1` displayed a melting point of 161 to 162 °C.
Then `NS(=O)(=O)c1cscc1C(=O)O`, with 222 to 224 °C; and `O=C(NO)c1ccc(CNC(=O)c2[nH]c(-c3ccccc3)cc2-c2ccc(Br)cc2)cc1`, with 174 to 176 °C.
Compound `Cc1nnc2c3c(c(NCCN4CCCC4)nn12)CCCC3` had a melting point of 184 to 186 °C.
In the case of `C=CC[C@@H]1C[C@@H](COS(C)(=O)=O)NC1=O`, the melting point is 62 to 63 °C.
Then `COc1ccc(CN(C)CCCCc2ccc(NC(=O)c3cccc4c(=O)c5ccccc5[nH]c34)cc2)cc1OC`, with 140 °C; and `CCCCc1nn(-c2ccccc2Cl)c(=O)[nH]1`, with 103 to 104 °C.
For `CCC(CC)N(OCc1ccccc1)C(=O)Nc1ccccc1`, the melting point lay within 45 to 45.6 °C.
Then `CC(C)n1cc(-c2nc(C(=O)O)c(N)nc2-c2ccc(F)cc2)ccc1=O`, with 222 °C; and `COc1cc(N)ccc1C(O)c1cc(C)ccn1` (configuration not stated), with 114 to 117 °C.
Then `CCCCCN1CCC(n2nc(-c3c(-c4ccccc4)nn4ccccc34)ccc2=O)CC1`, with 106 °C; and `CNC(=O)N1N=C(c2ccc(N)cc2)c2cc(Br)ccc2CC1C` (configuration not stated), with 121 to 124 °C.
Then `COc1ccc(COCC(O)Cc2cccnc2)cc1` (configuration not stated), with 55 to 56 °C.
Take `NP(N)(=O)NC(=O)c1ccsc1`: the melting point is 269 to 278 °C.
The figure for `CCS(=O)(=O)NC(C(=O)NCCc1ccc(OC)c(OC)c1)c1ccc(Cl)cc1` (configuration not stated) is 136 to 138 °C.

For the origin of these results see a melting point compilation (Tetko et al.; mined from patent text by program, amines drawn as free bases though some values may be those of a salt).
